How the values were obtained:
Assay in all cases: drug sensitivity score (DSS3, normalised partial AUC of % inhibition dose-response) (DSS (score)); higher = more sensitive (stronger inhibition of viability); extreme values may be limits of the assay
[1] = test system: FMOC04 (patient-derived high-grade serous ovarian cancer cells); settings: 72 h; library: FO5A; assay format: 2D, 384-well, CellTiter-Glo
Procedure, shortened: (§1)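 The drug sensitivity score is calculated as a partial area under the percent-inhibition dose-response curve, divided by the log of the upper asymptote; higher scores mean more sensitive. For this score, early-passage (under 10) patient-derived ovarian cancer cells were exposed on 384-well flat clear-bottom plates to compounds at five concentrations across a 10,000-fold range for 72 h at 37 °C, 5% CO2. Viability was read with CellTiter-Glo and processed in Breeze.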

[2] = test system: FMOC24 (patient-derived high-grade serous ovarian cancer cells); settings: 72 h; library: FO5A; assay format: 2D, 384-well, CellTiter-Glo
Procedure, shortened: as §1

[3] = test system: FMOC25_2 (patient-derived low-grade serous ovarian cancer cells); settings: 72 h; library: FO5A; assay format: 2D, 384-well, CellTiter-Glo
Procedure, shortened: as §1

[4] = test system: FMOC02_1 (patient-derived low-grade serous ovarian cancer cells); settings: 72 h; library: FO5A; assay format: 2D, 384-well, CellTiter-Glo
Procedure, shortened: as §1

[5] = test system: FMOC28 (patient-derived low-grade serous ovarian cancer cells); settings: 72 h; library: FO5A; assay format: 2D, 384-well, CellTiter-Glo
Procedure, shortened: as §1

[6] = test system: FMOC02_2 (patient-derived low-grade serous ovarian cancer cells); settings: 72 h; library: FO5A; assay format: 2D, 384-well, CellTiter-Glo
Procedure, shortened: as §1

[7] = test system: FMOC09 (patient-derived high-grade serous ovarian cancer cells); settings: 72 h; library: FO5A; assay format: 2D, 384-well, CellTiter-Glo
Procedure, shortened: as §1

[8] = test system: FMOC11 (patient-derived high-grade serous ovarian cancer cells); settings: 72 h; library: FO5A; assay format: 2D, 384-well, CellTiter-Glo
Procedure, shortened: as §1

[9] = test system: FMOC22 (patient-derived mucinous ovarian cancer cells); settings: 72 h; library: FO5A; assay format: 2D, 384-well, CellTiter-Glo
Procedure, shortened: as §1

[10] = test system: FMOC25_1 (patient-derived low-grade serous ovarian cancer cells); settings: 72 h; library: FO4B; assay format: 2D, 384-well, CellTiter-Glo
Procedure, shortened: as §1

[11] = test system: FMOC06 (patient-derived mucinous ovarian cancer cells); settings: 72 h; library: FO5A; assay format: 2D, 384-well, CellTiter-Glo
Procedure, shortened: as §1

[12] = test system: FMOC02_3 (patient-derived low-grade serous ovarian cancer cells); settings: 72 h; library: FO5A; assay format: 2D, 384-well, CellTiter-Glo
Procedure, shortened: as §1

[13] = test system: FMOC27 (patient-derived low-grade serous ovarian cancer cells); settings: 72 h; library: FO5A; assay format: 2D, 384-well, CellTiter-Glo
Procedure, shortened: as §1

[14] = test system: FMOC17 (patient-derived low-grade serous ovarian cancer cells); settings: 72 h; library: FO5A; assay format: 2D, 384-well, CellTiter-Glo
Procedure, shortened: as §1

[15] = test system: FMOC14 (patient-derived high-grade serous ovarian cancer cells); settings: 72 h; library: FO5A; assay format: 2D, 384-well, CellTiter-Glo
Procedure, shortened: as §1

[16] = test system: FMOC03 (patient-derived mucinous ovarian cancer cells); settings: 72 h; library: FO5A; assay format: 2D, 384-well, CellTiter-Glo
Procedure, shortened: as §1

| Compound | drug sensitivity score [1] | drug sensitivity score [2] | drug sensitivity score [3] | drug sensitivity score [4] | drug sensitivity score [5] | drug sensitivity score [6] | drug sensitivity score [7] | drug sensitivity score [8] | drug sensitivity score [9] | drug sensitivity score [10] | drug sensitivity score [11] | drug sensitivity score [12] | drug sensitivity score [13] | drug sensitivity score [14] | drug sensitivity score [15] | drug sensitivity score [16] |
| --- | --- | --- | --- | --- | --- | --- | --- | --- | --- | --- | --- | --- | --- | --- | --- | --- |
| CNC(=O)c1cccc2cc(Oc3ccnc4cc(OCC5(N)CC5)c(OC)cc34)ccc12 [Lucitanib] | 0.4 | 1.45 | 1.4 | 2.6 | 4.1 | 0.4 | 1.2 | 1.1 | 0.2 | 0.3 | 0.3 | 1.7 | 1.4 | 0.2 | 0 | 0.1 |
| O=C(O)CC[C@H]1CC[C@@](c2cc(F)ccc2F)(S(=O)(=O)c2ccc(Cl)cc2)CC1 [MK-0752] | 0 | 0 | 0 | 0 | 0.2 | 0 | 0 | 0 | 0 | 0 | 0.3 | 0.7 | 0 | 0 | 0 | 0 |
| NC1(c2ccc(-c3nc4ccn5c(=O)[nH]nc5c4cc3-c3ccccc3)cc2)CCC1 [MK-2206] | 1.75 | 1.5 | 3 | 4.9 | 5.5 | 7.5 | 2.7 | 0.9 | 0.8 | 4.9 | 4.8 | 6.9 | 1.5 | 4.2 | 2 | 2.5 |
| O=C(c1cccc(Cl)c1F)N1CCN(Cc2cccc(Nc3nccs3)n2)CC1 [MK-8745] | 1.3 | 0.2 | 4 | 7.1 | 5.8 | 6.1 | 0.2 | 4 | 1.8 | 0 | 0 | 5.7 | 0 | 2.1 | 0.2 | 1.3 |
| Cn1cc(-c2cnn3c(N)c(Br)c([C@@H]4CCCNC4)nc23)cn1 [MK-8776] | 2.45 | 0.3 | 2.8 | 2 | 2.5 | 0 | 0 | 2.4 | 0 | 1.4 | 0 | 1.5 | 0 | 0.6 | 0.9 | 0 |
| Cc1cnc(-c2ccccc2C(C)C)nc1NCc1ccc(-n2ccnn2)cc1 [ML323] | 0 | 0.8 | 1.7 | 0.1 | 0.9 | 3.1 | 0 | 0 | 0.3 | 0.6 | 0 | 0.2 | 0.6 | 0 | 0 | 0.9 |
| CNC(=O)[C@@H](NC(=O)[C@H](CC(C)C)[C@H](O)C(=O)NO)C(C)(C)C [Marimastat] | 0 | 0 | 3.6 | 0.9 | 0 | 0 | 0.1 | 0.4 | 0 | 0.6 | 0 | 0 | 0 | 0 | 0 | 0 |
| Cc1ccc(NC(=O)c2ccc(CN3CCN(C)CC3)cc2)cc1Nc1nc(-c2cccnc2)cs1 [Masitinib] | 0.9 | 5.6 | 3.9 | 2.8 | 1.2 | 2.4 | 2.7 | 3.9 | 2.6 | 2.2 | 4.4 | 4.8 | 0 | 4.2 | 5.4 | 3.6 |
| CC(=O)O[C@]1(C(C)=O)CC[C@H]2[C@@H]3C=C(C)C4=CC(=O)CC[C@]4(C)[C@H]3CC[C@@]21C [Megestrol acetate] | 0 | 0 | 0 | 0.3 | 1 | 0 | 0 | 0 | 0 | 0 | 0.4 | 0 | 4.6 | 0 | 0 | 0.2 |
| Cc1ccc(C(=O)Nc2ccc(Oc3cc4cnn(C)c4cc3-c3cn[nH]c3)c(F)c2)c(=O)n1-c1ccc(F)cc1 [Merestinib] | 0 | 1.15 | 4 | 1.1 | 1.4 | 1.9 | 1.6 | 0 | 0 | 2.7 | 1.1 | 4.4 | 0 | 0.3 | 0 | 1.3 |
| CN(C)C(=N)NC(=N)N [Metformin] | 0 | 0 | 0 | 0 | 0 | 0 | 0 | 0 | 0 | 0 | 0 | 0 | 0 | 0 | 0 | 0 |
| C[C@H]1C[C@@H]2[C@H]([C@@H](O)C[C@@]3(C)[C@H]2CC[C@]3(O)C(=O)CO)[C@@]2(C)C=CC(=O)C=C12 [Methylprednisolone] | 0 | 0 | 0 | 0 | 0 | 0 | 0.1 | 0.6 | 0 | 0 | 0.1 | 0 | 0 | 0 | 0 | 0 |
| CO[C@@]12[C@H](COC(N)=O)C3=C(C(=O)C(C)=C(N)C3=O)N1C[C@@H]1N[C@@H]12 [Mitomycin C] | 0 | 0.45 | 3.7 | 0 | 0.8 | 0 | 2.7 | 1.6 | 0 | 3.6 | 0 | 1.9 | 0.1 | 0 | 0 | 0 |
| Clc1ccc(C(c2ccccc2Cl)C(Cl)Cl)cc1 (centres undefined) [Mitotane] | 0 | 0 | 0 | 0 | 0 | 0 | 0 | 0 | 0 | 0 | 0 | 0 | 0 | 0 | 0 | 0 |
| CC1(C)CNc2cc(NC(=O)c3cccnc3NCc3ccncc3)ccc21 [Motesanib] | 0 | 0.15 | 0.1 | 0 | 2.4 | 0.5 | 0 | 0.2 | 0 | 1 | 1.1 | 2.9 | 0.6 | 0 | 0 | 0 |
| FC(F)(F)c1ccc(/C=C/c2nc(COc3ccc(CCCCn4ccnn4)cc3)co2)cc1 [Mubritinib] | 0 | 0 | 1.1 | 0 | 0 | 0 | 0 | 0.6 | 3 | 0.1 | 0.6 | 0 | 1.7 | 0 | 0.7 | 3.9 |
| COc1nc(N)nc2c1ncn2[C@@H]1O[C@H](CO)[C@@H](O)[C@@H]1O [Nelarabine] | 0 | 1.75 | 0 | 0 | 0 | 0 | 0 | 0 | 0 | 0 | 1.7 | 0 | 0 | 0 | 0 | 0 |
| Cc1cn(-c2cc(NC(=O)c3ccc(C)c(Nc4nccc(-c5cccnc5)n4)c3)cc(C(F)(F)F)c2)cn1 [Nilotinib] | 0 | 3.7 | 1.5 | 3 | 5.6 | 1.3 | 0.7 | 4.6 | 1 | 3.4 | 3.4 | 0 | 2.3 | 2.4 | 0.9 | 3.5 |
| CC1(C)NC(=O)N(c2ccc([N+](=O)[O-])c(C(F)(F)F)c2)C1=O [Nilutamide] | 0 | 0.65 | 0 | 0 | 0 | 0 | 0 | 0 | 0 | 0 | 0 | 0 | 0.1 | 0.5 | 0 | 0 |
| NC(=O)c1cccc2cn(-c3ccc([C@@H]4CCCNC4)cc3)nc12 [Niraparib] | 0.55 | 5.55 | 4.8 | 4.2 | 5.4 | 2.6 | 1.6 | 1.4 | 1.9 | 1.5 | 1.5 | 6.6 | 3.2 | 0 | 0 | 0 |
| CNC(=O)c1ccc2cc([C@@]3(O)CCn4cncc43)ccc2c1 [Orteronel] | 0 | 0 | 1.4 | 0 | 0.2 | 0 | 0 | 0 | 0 | 0 | 0 | 0 | 0 | 0 | 0 | 0 |
| C=CCc1cccc(/C=N/NC(=O)CN2CCN(Cc3ccccc3)CC2)c1O [PAC-1] | 0 | 1.2 | 2.1 | 0 | 7.1 | 3.6 | 4.8 | 3.1 | 3.5 | 0.4 | 3.7 | 0 | 0 | 1.3 | 5 | 5.6 |
| O=C(Nc1cccnc1)N1CCC(Cc2cccc(Oc3ccc(C(F)(F)F)cn3)c2)CC1 [PF-3845] | 0 | 0.4 | 0 | 1.1 | 2.5 | 3.3 | 0 | 0 | 1.5 | 1.7 | 0.1 | 1.2 | 1.9 | 1.6 | 0 | 2.3 |
| O=C(Nc1cc(Cl)cc2c1[nH]c1cnccc12)c1cccnc1 [PS-1145] | 0 | 2.75 | 2.7 | 2.2 | 3 | 4.6 | 1.1 | 0.8 | 0 | 3.2 | 0.8 | 7.2 | 0.7 | 2.3 | 0 | 0.1 |

— the supplement of paper PMC9938120
